In general, ED50 refers to the dose that gives a 50% effect, or the effect in half of the subjects. As usually defined, the inhibition is the drop in the measured response relative to a control, in per cent.

Data set [1] concerns the target T1, CB1 receptor (Rattus norvegicus, UniProt P20272). Briefly: Pregnenolone concentrations in the brain after drugs of abuse and CB1 ligands (GC/MS). It counts as in vivo, Wistar rats. Further details: tissue Charles River Laboratories (France) (animals); host or cells: living Wistar rats, whole animal. As for the experimental part: Plasma, brain and culture medium levels of pregnenolone (5-Pregnen-3β-ol-20-one), allopregnanolone (3α-hydroxy-5α-pregnan-20-one), epiallopregnanolone (3β-hydroxy-5α-pregnan-ol-20-one), testosterone, and 5α dihydrotestosterone were determined by GC/MS according to the of estraction, purification and quantification protocol described previously (George O, et al., Biol Psychiatry. 2010 68: 956-63, Vallee M, et al., Anal Biochem. 2000, 287:153-66).
In this example the inventors analyzed the effects of the injection of the principal drugs of abuse on the production of pregnenolone in male Wistar rats. […] For example, in the brain, starting from pregnenolone two parallel enzymatic cascades allow producing on one hand allopregnanolone and its stereoisomer epiallopregnanolone and on the other testosterone and its metabolite DHT. These brain steroids were quantified using GC-MS, the only technique able to differentiate their subtle structural differences. […] Concentrations of neurosteroids were analyzed 15, 30 and 120 min after the injection in several ascending brain structure, the ventral midbrain the hypothalamus, the striatal complex and the frontal cortex.
The example provides data obtained in the plasma and in several brain structures: frontal cortex (FCX); nucleus accumbens (ACC); striatum (STR); hypothalamus (HYP).
The effects of THC in the brain are mediated by a family of G-protein-coupled seven membrane receptors (GCPR) and principally by the CB1 and CB2 receptors.

For data set [2], the target named is CB1 receptor (Mus musculus, UniProt P47746). The experiment in a line: THC inhibition of fEPSP in nucleus accumbens slices. The data set is classed as cell-based, mice. Further details: from tissue; host or cells: acute brain slices, nucleus accumbens. Particulars: control slices. As for the experimental part:
Animals were deeply anesthetized with Isoflourane and transcardially perfused with a sucrose-based physiological solution at 4° C. (in mM: 23 NaHCO3, 70 Choline Cl, 75 Sucrose, 25 Glucose, 2.5 KCl, 1.25 NaH2PO4, 7 MgCl2 and 0.5 CaCl2). The brain was removed and sliced (250-300 μm) in the coronal plane using a vibratome (Campden Instruments, Loughborough, UK). During the slicing process, the brain was maintained in the sucrose-based solution. Immediately after cutting, slices were stored at 32° C. for 40 minutes in a low-calcium artificial cerebrospinal fluid (low-Ca^2+ ACSF) that contained (in mM): 23 NaHCO3, 120 NaCl, 11 Glucose, 2.5 KCl, 1.2 NaH2PO4, 2.4 MgCl2, 1.2 CaCl2. Slices were then stored in low-Ca^2+ ACSF at room temperature until recording.
For fEPSPs, extracellular glass recording and stimulating electrodes were filled with ACSF. Synaptic potentials were evoked by means of two electric stimuli (0.1-0.25 mA, 200 μsec duration) delivered at 20 Hz every 10 seconds. Stimulating electrode was placed at a distance>150 μm in the dorsomedial direction from the recoding electrode.
In order to test the effect of pregnenolone on a wider range of THC concentrations, we recorded fEPSP in NAc slices. Due to the possibility to achieved stable fEPSP measurements for several hours, this technique is ideally suited to perform dose-response curves and has previously been used to address CB1 receptor function (Robbe et al., 2001; Mato et al., 2004). Thus, AMPAR-mediated evoked fEPSP were recorded by electrically stimulating local axons.

Data set [3] concerns the target T1, CB1 receptor. The experiment in a line: THC inhibition of AMPAR-mediated EPSC, patch clamp in nucleus accumbens slices. It counts as cell-based, rats. Further details: from tissue; host or cells: acute coronal brain slices, nucleus accumbens. Particulars: control slices. In general terms: The patch-clamp technique gives a direct electrical read-out from membranes.

The nature of data set [4]: Elevated plus maze, anxiety-like behaviors. It counts as in vivo, mice. The note with it: sc, 30 min before test; pregnenolone 1, 6, 10 mg/kg; rimonabant 10 mg/kg. As for the experimental part: The elevated plus maze was made by a central platform (10×10 cm) from which departed 4 arms (45×10 cm) at a 90° angle from each other. Two opposite arms, named closed arms had peripheral wall 50 cm high. The two other arms, named open arms had no walls. The maze was suspended at 66 cm from the floor of the room and was brightly lighted (120 lux). The testing consisted in placing the animal in the central platform and the number of entry and the time spent in each compartment of the maze recorded for 5 min. The number of entry and time spent in the open arms are considered and index of anxiety-like behaviors, whilst the total number of entry are and index of locomotor activity.
One of the major side effects of orthosteric antagonists of the CB1 is the induction of behavioral side effect and in particular an axiodepressive state. […] This test has been chosen because an increase in anxiety was the principal undesirable side effect of this compound in humans.

Sequence of CB1 receptor (Mus musculus, UniProt P47746) (P47746 whole entry, the tested form may be a part): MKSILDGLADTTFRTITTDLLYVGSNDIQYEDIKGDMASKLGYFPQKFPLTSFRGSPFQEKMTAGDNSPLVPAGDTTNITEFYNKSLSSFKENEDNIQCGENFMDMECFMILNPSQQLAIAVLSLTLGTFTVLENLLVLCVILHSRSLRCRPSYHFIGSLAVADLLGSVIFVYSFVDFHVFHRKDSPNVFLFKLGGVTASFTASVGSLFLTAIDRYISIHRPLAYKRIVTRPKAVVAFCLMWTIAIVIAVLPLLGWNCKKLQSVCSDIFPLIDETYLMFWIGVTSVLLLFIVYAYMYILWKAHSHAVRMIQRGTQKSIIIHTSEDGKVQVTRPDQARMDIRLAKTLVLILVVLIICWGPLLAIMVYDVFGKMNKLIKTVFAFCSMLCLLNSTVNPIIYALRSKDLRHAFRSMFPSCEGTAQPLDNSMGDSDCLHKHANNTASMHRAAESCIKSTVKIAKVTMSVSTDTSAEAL
T1 sequence (P20272 whole entry): as the sequence (P47746 whole entry, the tested form may be a part) above, with D95E counted along it

With `CCCCCc1cc(O)c2c(c1)OC(C)(C)[C@@H]1CCC(C)=C[C@@H]21` [THC, Δ9-tetrahydrocannbinol, reference compound], the “increase in brain concentrations of pregnenolone” value on CB1 receptor [1] (nucleus accumbens, between 15 and 30 min after the injection, THC 3 mg/kg) is recorded as “around 1500%”. The ED50 at CB1 receptor [1] (rat, 30 min after the injection, THC 0.3-9 mg/kg, read-out: ED50 of the increase in pregnenolone in the brain) is roughly 3 mg/kg. For the same compound, on CB1 receptor [2] (THC 10 μM), at 10 µM the inhibition was 23.9 ± 6%. For the same compound, on CB1 receptor [2] (THC 20 μM), the inhibition at 20 µM was found to be 35.3 ± 4.7%. On CB1 receptor [2] (THC 40 μM), this compound displayed an inhibition at 40 µM of 48.6 ± 3.6%. Also, at CB1 receptor [3], the “inhibition of EPSC amplitude by THC” value is 34.3±3.7 % of inhibition.

In the case of `Cc1c(C(=O)NN2CCCCC2)nn(-c2ccc(Cl)cc2Cl)c1-c1ccc(Cl)cc1` [rimonabant, reference compound], the “anxiety-like behavior (entries and time spent in open arms)” value in data set [4] was “anxiogenic effects”.

For the origin of these results see patent publication US10150793B2, “Antagonists of CB1 receptor” (INSERM (Institut National de la Santé et de la Recherche …, priority 2011, dated 2018).
